Test results from patent publication US7858635B2 (priority 2005, dated 2010).

Tests used:
M1 muscarinic receptor = target: T1, M1 muscarinic receptor (Homo sapiens, UniProt P11229); assay: Functional mobilization of intracellular calcium (FLIPR, Fluo-3), M1-CHO cells; format: cell-based; settings: compound nos. 1-454; for Emax: 100% efficacy is the maximum response obtained with the Carbachol control, read-out: M1 Efficacy; for M1 Activity: M1-CHO cells, calcium mobilization
T1 construct: expressed in transfected cells; host or cells: CHO cells (M1-CHO, under zeocin and G418 selection)
T1 sequence (P11229 1-460): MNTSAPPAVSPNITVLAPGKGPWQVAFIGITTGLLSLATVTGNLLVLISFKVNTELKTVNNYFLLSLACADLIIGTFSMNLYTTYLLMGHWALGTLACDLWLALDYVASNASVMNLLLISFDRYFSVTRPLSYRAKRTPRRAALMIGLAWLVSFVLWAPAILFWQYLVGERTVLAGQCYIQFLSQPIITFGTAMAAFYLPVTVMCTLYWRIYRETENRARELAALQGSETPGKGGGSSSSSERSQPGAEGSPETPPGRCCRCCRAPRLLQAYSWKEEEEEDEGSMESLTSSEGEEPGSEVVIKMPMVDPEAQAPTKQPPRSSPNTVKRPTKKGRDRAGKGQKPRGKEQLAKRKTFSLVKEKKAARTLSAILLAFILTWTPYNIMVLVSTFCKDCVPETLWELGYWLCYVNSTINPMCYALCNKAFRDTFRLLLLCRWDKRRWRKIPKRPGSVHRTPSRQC
In short: (§1)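 Intracellular calcium was tracked by fluorescence (488/540 nm) over 60 sec after compound addition to dye-loaded CHO cells expressing the receptor. Inhibitory activity used a 15 min pre-incubation before carbachol at the subtype EC80.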

M4 muscarinic receptor = target: T2, M4 muscarinic receptor (Homo sapiens, UniProt P08173); assay: Functional mobilization of intracellular calcium (FLIPR, Fluo-3), M4-CHO cells; format: cell-based; settings: compound nos. 1-454; for Emax: 100% efficacy is the maximum response obtained with the Carbachol control, read-out: M4 Efficacy; for M4 Activity: M4-CHO cells, calcium mobilization
T2 construct: expressed in transfected cells; host or cells: CHO cells (M4-CHO, under puromycin, zeocin and blasticidin selection)
T2 sequence (P08173 1-479): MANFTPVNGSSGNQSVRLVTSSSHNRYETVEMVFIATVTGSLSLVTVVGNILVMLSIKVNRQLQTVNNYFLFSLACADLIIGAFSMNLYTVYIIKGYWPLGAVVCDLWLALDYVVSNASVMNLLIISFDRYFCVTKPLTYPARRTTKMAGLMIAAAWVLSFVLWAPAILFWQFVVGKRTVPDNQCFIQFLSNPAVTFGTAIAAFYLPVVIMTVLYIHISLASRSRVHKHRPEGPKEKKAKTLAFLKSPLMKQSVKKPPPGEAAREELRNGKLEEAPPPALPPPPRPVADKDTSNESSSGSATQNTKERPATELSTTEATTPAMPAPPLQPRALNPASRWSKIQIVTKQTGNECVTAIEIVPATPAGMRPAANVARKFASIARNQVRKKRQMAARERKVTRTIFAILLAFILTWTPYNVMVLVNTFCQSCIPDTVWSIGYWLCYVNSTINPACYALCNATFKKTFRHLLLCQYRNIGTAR
In short: as §1

CC(=O)N1CC2(CCN(C3CCN(C(=O)OC4CCC4)CC3)CC2)c2cc(C)ccc21 [compound 151]
Emax (M1 muscarinic receptor): > 85%
M1 Activity (M1 muscarinic receptor): +++ (activity was measured to be less than or equal to 0.7 μM)
Emax (M4 muscarinic receptor): > 70%
M4 Activity (M4 muscarinic receptor): +++ (activity was measured to be less than or equal to 0.1 μM)

Fc1ccc2c(c1)C1(CCN(C3CCCCC3)CC1)CO2 [compound 152]
Emax (M1 muscarinic receptor): 65 to 85%
M1 Activity (M1 muscarinic receptor): ++ (activity was measured to be between 0.7 μM and 3.0 μM)
Emax (M4 muscarinic receptor): > 70%
M4 Activity (M4 muscarinic receptor): + (activity was measured to be greater than or equal to 4.0 μM)

CCOC(=O)N1C2CCC1CC(N1CCC3(CC1)CNc1ccccc13)C2 (stereo not shown) [compound 153]
Emax (M1 muscarinic receptor): > 85%
M1 Activity (M1 muscarinic receptor): +++ (activity was measured to be less than or equal to 0.7 μM)
Emax (M4 muscarinic receptor): > 70%
M4 Activity (M4 muscarinic receptor): +++ (activity was measured to be less than or equal to 0.1 μM)

COC(=O)N1CCC(N2CCC3(CC2)CN(C(=O)N(C)C)c2ccc(F)cc23)CC1 [compound 154]
Emax (M1 muscarinic receptor): 65 to 85%
M1 Activity (M1 muscarinic receptor): +++ (activity was measured to be less than or equal to 0.7 μM)
Emax (M4 muscarinic receptor): > 70%
M4 Activity (M4 muscarinic receptor): +++ (activity was measured to be less than or equal to 0.1 μM)

Clc1ccc2c(c1)C1(CCN(C3CCCCC3)CC1)CN2 [compound 155]
Emax (M1 muscarinic receptor): > 85%
M1 Activity (M1 muscarinic receptor): +++ (activity was measured to be less than or equal to 0.7 μM)
Emax (M4 muscarinic receptor): > 70%
M4 Activity (M4 muscarinic receptor): + (activity was measured to be greater than or equal to 4.0 μM)

COC(=O)N1C2CCC1CC(N1CCC3(CC1)COc1ccc(F)cc13)C2 (stereo not shown) [compound 156]
Emax (M1 muscarinic receptor): 65 to 85%
M1 Activity (M1 muscarinic receptor): +++ (activity was measured to be less than or equal to 0.7 μM)
Emax (M4 muscarinic receptor): > 70%
M4 Activity (M4 muscarinic receptor): +++ (activity was measured to be less than or equal to 0.1 μM)

Clc1ccc2c(c1)C1(CCN(CC3CCCCC3)CC1)CN2 [compound 157]
Emax (M1 muscarinic receptor): 65 to 85%
M1 Activity (M1 muscarinic receptor): +++ (activity was measured to be less than or equal to 0.7 μM)
Emax (M4 muscarinic receptor): > 70%
M4 Activity (M4 muscarinic receptor): + (activity was measured to be greater than or equal to 4.0 μM)

CC(=O)N[C@H]1CC2(CCN([C@@H]3C[C@@H]4CC[C@@H]3C4)CC2)c2ccccc21 [compound 158]
Emax (M1 muscarinic receptor): > 85%
M1 Activity (M1 muscarinic receptor): +++ (activity was measured to be less than or equal to 0.7 μM)
Emax (M4 muscarinic receptor): > 70%
M4 Activity (M4 muscarinic receptor): + (activity was measured to be greater than or equal to 4.0 μM)

CC(=O)NC1CC2(CCN(C3CCCCCC3)CC2)c2ccccc21 (stereo not shown) [compound 159]
Emax (M1 muscarinic receptor): > 85%
M1 Activity (M1 muscarinic receptor): ++ (activity was measured to be between 0.7 μM and 3.0 μM)
Emax (M4 muscarinic receptor): > 70%
M4 Activity (M4 muscarinic receptor): + (activity was measured to be greater than or equal to 4.0 μM)

CC(C)COC(=O)N1C2CCC1CC(N1CCC3(CC1)COc1ccc(F)cc13)C2 (stereo not shown) [compound 160]
Emax (M1 muscarinic receptor): > 85%
M1 Activity (M1 muscarinic receptor): +++ (activity was measured to be less than or equal to 0.7 μM)
Emax (M4 muscarinic receptor): > 70%
M4 Activity (M4 muscarinic receptor): ++ (activity was measured to be between 0.1 μM and 4.0 μM)

CC(=O)NC1CC2(CCN(C[C@H]3C[C@H]4CC[C@H]3C4)CC2)c2ccccc21 (stereo partly shown) [compound 161]
Emax (M1 muscarinic receptor): > 85%
M1 Activity (M1 muscarinic receptor): ++ (activity was measured to be between 0.7 μM and 3.0 μM)
Emax (M4 muscarinic receptor): > 70%
M4 Activity (M4 muscarinic receptor): + (activity was measured to be greater than or equal to 4.0 μM)

CC(=O)N1CC2(CCN(CC3=CCCCC3)CC2)c2cc(F)ccc21 [compound 163]
Emax (M1 muscarinic receptor): 65 to 85%
M1 Activity (M1 muscarinic receptor): +++ (activity was measured to be less than or equal to 0.7 μM)
Emax (M4 muscarinic receptor): > 70%
M4 Activity (M4 muscarinic receptor): ++ (activity was measured to be between 0.1 μM and 4.0 μM)

Clc1ccc2c(c1)C1(CCO2)CCN(C[C@@H]2C[C@H]3C=C[C@H]2C3)CC1 [compound 164]
Emax (M1 muscarinic receptor): > 85%
M1 Activity (M1 muscarinic receptor): ++ (activity was measured to be between 0.7 μM and 3.0 μM)
Emax (M4 muscarinic receptor): > 70%
M4 Activity (M4 muscarinic receptor): + (activity was measured to be greater than or equal to 4.0 μM)

CCOC(=O)N1CCC(N2CCC3(CC2)CN(C(C)=O)c2ccc(-c4ccsc4)cc23)CC1 [compound 165]
Emax (M1 muscarinic receptor): 65 to 85%
M1 Activity (M1 muscarinic receptor): + (activity was measured to be greater than or equal to 3.0 μM)
Emax (M4 muscarinic receptor): > 70%
M4 Activity (M4 muscarinic receptor): + (activity was measured to be greater than or equal to 4.0 μM)

CC(C)OC(=O)N1C2CCC1CC(N1CCC3(CC1)CN(C(=O)OC1CCC1)c1ccc(F)cc13)C2 (stereo not shown) [compound 166]
Emax (M1 muscarinic receptor): > 85%
M1 Activity (M1 muscarinic receptor): +++ (activity was measured to be less than or equal to 0.7 μM)
Emax (M4 muscarinic receptor): > 70%
M4 Activity (M4 muscarinic receptor): + (activity was measured to be greater than or equal to 4.0 μM)

CCOC(=O)N1C2CCC1CC(N1CCC3(CC1)CN(C(=O)OC)c1ccc(F)cc13)C2 (stereo not shown) [compound 167]
Emax (M1 muscarinic receptor): 65 to 85%
M1 Activity (M1 muscarinic receptor): +++ (activity was measured to be less than or equal to 0.7 μM)
Emax (M4 muscarinic receptor): > 70%
M4 Activity (M4 muscarinic receptor): ++ (activity was measured to be between 0.1 μM and 4.0 μM)

CC(=O)N1CC2(CCN(C3CCCN(C(=O)OCCF)CC3)CC2)c2cc(F)ccc21 (stereo not shown) [compound 168]
M1 Activity (M1 muscarinic receptor): ++ (activity was measured to be between 0.7 μM and 3.0 μM)
Emax (M4 muscarinic receptor): > 70%
M4 Activity (M4 muscarinic receptor): ++ (activity was measured to be between 0.1 μM and 4.0 μM)

CCOC(=O)N1CCC(N2CCC3(CC2)CN(C(=O)N(C)c2ccccc2)c2ccc(F)cc23)CC1 [compound 169]
Emax (M1 muscarinic receptor): 65 to 85%
M1 Activity (M1 muscarinic receptor): +++ (activity was measured to be less than or equal to 0.7 μM)
Emax (M4 muscarinic receptor): > 70%
M4 Activity (M4 muscarinic receptor): + (activity was measured to be greater than or equal to 4.0 μM)

CC(C)OC(=O)N1C2CCC1CC(N1CCC3(CC1)CN(S(C)(=O)=O)c1ccc(F)cc13)C2 (stereo not shown) [compound 170]
Emax (M1 muscarinic receptor): 65 to 85%
M1 Activity (M1 muscarinic receptor): ++ (activity was measured to be between 0.7 μM and 3.0 μM)
Emax (M4 muscarinic receptor): > 70%
M4 Activity (M4 muscarinic receptor): + (activity was measured to be greater than or equal to 4.0 μM)

CC(=O)N[C@@H]1CC2(CCN([C@H]3C[C@@H]4CC[C@H]3C4)CC2)c2ccccc21 [compound 171]
Emax (M1 muscarinic receptor): > 85%
M1 Activity (M1 muscarinic receptor): ++ (activity was measured to be between 0.7 μM and 3.0 μM)
Emax (M4 muscarinic receptor): 55 to 70%
M4 Activity (M4 muscarinic receptor): + (activity was measured to be greater than or equal to 4.0 μM)

CC(=O)N1CC2(CCN(C3CCN(C(=O)OCCF)CC3)CC2)c2cc(F)ccc21 [compound 172]
Emax (M1 muscarinic receptor): > 85%
M1 Activity (M1 muscarinic receptor): + (activity was measured to be greater than or equal to 3.0 μM)
Emax (M4 muscarinic receptor): 55 to 70%
M4 Activity (M4 muscarinic receptor): + (activity was measured to be greater than or equal to 4.0 μM)

CCOC(=O)N1CCC(N2CCC3(CC2)CN(C(=O)OC)c2ccc(F)cc23)CC1 [compound 173]
Emax (M1 muscarinic receptor): 65 to 85%
M1 Activity (M1 muscarinic receptor): +++ (activity was measured to be less than or equal to 0.7 μM)
Emax (M4 muscarinic receptor): > 70%
M4 Activity (M4 muscarinic receptor): ++ (activity was measured to be between 0.1 μM and 4.0 μM)

CC(=O)N1CC2(CCN(C3CC4CCC(C3)N4C(=O)OC3CCC3)CC2)c2cc(F)ccc21 (stereo not shown) [compound 174]
Emax (M1 muscarinic receptor): > 85%
M1 Activity (M1 muscarinic receptor): +++ (activity was measured to be less than or equal to 0.7 μM)
Emax (M4 muscarinic receptor): 55 to 70%
M4 Activity (M4 muscarinic receptor): + (activity was measured to be greater than or equal to 4.0 μM)

Fc1ccc2c(c1)C1(CCN([C@@H]3C[C@@H]4CC[C@H]3C4)CC1)CO2 [compound 175]
Emax (M1 muscarinic receptor): 65 to 85%
M1 Activity (M1 muscarinic receptor): +++ (activity was measured to be less than or equal to 0.7 μM)
Emax (M4 muscarinic receptor): 55 to 70%
M4 Activity (M4 muscarinic receptor): ++ (activity was measured to be between 0.1 μM and 4.0 μM)

CCOC(=O)N1CCC(CN2CCC3(CC2)COc2ccc(Cl)cc23)CC1 [compound 176]
Emax (M1 muscarinic receptor): > 85%
M1 Activity (M1 muscarinic receptor): ++ (activity was measured to be between 0.7 μM and 3.0 μM)
Emax (M4 muscarinic receptor): 55 to 70%
M4 Activity (M4 muscarinic receptor): ++ (activity was measured to be between 0.1 μM and 4.0 μM)

CCOC(=O)N1CCC(N2CCC3(CC2)CN(C(C)=O)c2ccc(-c4ccc(S(C)(=O)=O)cc4)cc23)CC1 [compound 177]
Emax (M1 muscarinic receptor): 65 to 85%
M1 Activity (M1 muscarinic receptor): +++ (activity was measured to be less than or equal to 0.7 μM)
Emax (M4 muscarinic receptor): 55 to 70%
M4 Activity (M4 muscarinic receptor): ++ (activity was measured to be between 0.1 μM and 4.0 μM)
